# Data reported in EP0302760A2, “Antiviral therapy for hepatitis B using 2',3'-dideoxynucleosides” (priority 1987, dated 1989).
# Where two headings read alike, the source gives them in different places.
# Columns and labels:
# [1] = system: duck hepatitis B virus (DHBV); experiment: Dot blot hybridization of DHBV DNA from DHBV-infected primary duck hepatocyte cultures; type: cell-based; settings: for inhibition at 10 µg/mL / inhibition at 1 µg/mL / IC50: Duck hepatitis B virus, Hepatocyte; for inhibition at 10 µg/mL / inhibition at 1 µg/mL: 480 h; for inhibition at 10 µg/mL: read-out: PERCENTAGE INHIBITION, 10 µg/ml; for inhibition at 1 µg/mL: read-out: PERCENTAGE INHIBITION, 1 µg/ml; for IC50: DHBV-infected hepatocytes, drug from day 2, DNA extracted on day sixteen, radioactivity of dots counted, read-out: concentrations of nucleoside analog required to inhibit the virus replication by 50% (ID₅₀)
# Method: Dose response curves for the purine 2′,3′-dideoxynucleosides and pyrimidine 2′,3′-dideoxynucleosides have been established by using the duck hepatitis B virus (DHBV) infected hepatocyte system. The DHBV-infected hepatocyte cultures were established as described in Example 1. Dideoxynucleoside analogs were added to the media of the hepatocyte cultures on day 2 and maintained in culture with media changes every two days. On day sixteen the DNA was extracted from the cells and the dot blots performed using the ³²P-labelled DHBV probe. The radioactivity of each "dot" was quantitated by cutting out the "dot" and counting the radioactivity. The abbreviations used in Figure 1, setting out the dose response curves, are as follows: ddA = 2′,3′-dideoxyadenosine; ddG = 2′,3′-dideoxyguanosine; ddDAPR = 2,6-diaminopurine 2′,3′-dideoxyriboside; ddI = 2′,3′-dideoxyinosine; ddT = 2′,3′-dideoxythymidine; ddC = 2′,3′-dideoxycytidine.
# Newborn ducklings are infected with DHBV. After 5 to 7 days post-infection, samples of blood are taken from the ducklings and examined for DHBV DNA using dot hybridization with a specific DNA probe [Mason et al, Proc. Natl. Acad. Sci. USA 79, 3997-4001 (1982)]. The livers are removed from dot-blot positive ducklings and used to produce primary hepatocyte cultures infected with DHBV as previously described. (Tuttleman et al, J. of Virology, 58, 17-25). After 2 days in culture, antiviral agents are added to the culture media. The media are changed every 2 days and at selected times, the cells are removed and the total DNA extracted.
# The DNA is spotted on nitrocellulose paper and probed with the ³²P-labelled DHBV DNA probe in accordance with the following procedure. The DNA from DHBV-infected hepatocytes was extracted and spotted onto a nitrocellular filter. The above described ³²P-nick translated - DHBV DNA (pDH-010=DHBV) probe was used. The DNA was extracted from 6-cm cell culture dishes at various times post-plating. In the VC group, cells were harvested at 2, 6, 8, 10, 14, 18 and 20 days. Duplicate samples were spotted for days 14, 18 and 20. In drug-treated groups, cells were harvested on days 8, 14 and 20. In Figure 1, this is from left to right. Drugs were added to the culture at 2 days post-plating and maintained throughout media changes every 2 days. The concentrations (µg/ml) used are indicated in Figure 1 for 2′,3′-dideoxythymidine (ddT), 2′,3′-dideoxycytidine (ddC), adenine arabinoside (ara A), 2′,3′-dideoxyadenosine (ddA) and 2′,3′-dideoxyguanosine (ddG). The total intracellular DNA was extracted from cells using the standard phenol extraction method. The cells in a 6-cm diameter Petri dish (approximately 5 x 10⁶ cells) were lysed in a lysis buffer containing 0.2% SDS, 150 mM Tris-HCl pH 8.0, 10 mM EDTA, 5 mM EGTA, and 150 mM NaCl. The cell lysate was digested with 0.5 mg/ml of pronase E (available from Sigma) at 37°C for 2 hours and deproteinized by extraction with an equal volume of phenol saturated with 20 mM Tris HCl, pH 7.5, 0.5 mM EDTA and 0.1% 8-hydroxyquinoline. Concentrated ammonium acetate [pH 7.0 (2.5 M)] was added to the aqueous phase to yield a 0.25 M ammonium acetate solution and the nucleic acids were precipitated with 2 volumes of 100% ethanol. The pellet of nucleic acid was washed with ethanol and dried. The DNA was dissolved in a solution containing 12.5 mM Tris HCl, pH 7.5, 10 mM EDTA, 30% glycerol and 0.01% bromophenol blue. One twelfth of the DNA sample was spotted onto the nitrocellulose for dot-blot analysis. ddA, ddG, ddC and ddT were purchased from Pharmacia. 2,6-Diaminopurine 2′,3′-dideoxyriboside [or 2,6-diamino-9-2,3-dideoxy-β-D-glycero-pentofuranosyl)purine] (ddDAPR) can be prepared by a procedure recently used for efficient conversion of adenosine into its ddAdo derivative (Robins et al, Tetrahedron Lett., 25, […], 1984; Hansske and Robins, Tetrahedron Lett., 26, 4295-4298, 1985).
# extracellular DHBV = experiment: Southern blot analysis of extracellular virion DNA from culture media of DHBV-infected hepatocytes; type: cell-based, duck hepatitis B virus (DHBV); settings: 1 µg/ml; culture media pooled from day 16 to day 20
# Excerpt: Southern blot analysis of the extracellular virion DNA was separated on a 1.5% agarose gel. Culture media were pooled from the day 16 to day 20 post-plating. Pelleted virions were digested with pronase and the DNA from the entire sample was applied to each lane. […] RC in Figure 3 indicated relaxed circular DNA.
# [2] = cited from earlier work
# hepatitis B virus = settings: cited from earlier work
# duck hepatocytes = experiment: Toxicity (cell viability) in duck hepatocytes; type: cell-based; settings: 100 µg/ml over a 10 day exposure
# Method: (§1) The toxicity of the purine 2′,3′-dideoxynucleosides has been tested in duck hepatocytes and monkey kidney cells (Vero) to reveal that decreased cell viability with ddA or ddG at 100 µg/ml over a 10 day exposure was not detected. As is known, several lymphocyte cell lines have been examined before for viability and function in the presence of 2′,3′-dideoxynucleosides. These cell lines have not shown decreased viability and function in the presence of 2′,3′-dideoxynucleosides.
# [3] = system: monkey kidney cells (Vero); experiment: Toxicity (cell viability) in monkey kidney cells; type: cell-based; settings: 100 µg/ml over a 10 day exposure
# Method: as §1
# DHBV DNA = experiment: Southern blot analysis of intracellular viral DNA from DHBV-infected hepatocytes; type: cell-based, duck hepatitis B virus (DHBV); settings: for change in DHBV DNA forms in treated hepatocytes: from day 14 to day 20; for inhibition at 1 µg/mL: Duck hepatitis B virus, Hepatocyte, similar experiments to the Southern blot of Example 2
# Method: Southern blot analysis of intracellular viral DNA was separated on a 1.5% agarose gel. The DNA was extracted from DHBV-infected hepatocytes in a 6-cm dish and one fifth of the total DNA was applied onto each lane. […] Drug-treated groups were harvested 14 and 20 days post-plating. The DNA samples from drug-treated hepatocytes were ddA (10 µg/ml), day 14 (lane 5) and day 20 (lane 6), ddA (1 µg/ml), day 14 (lane 7) and day 20 (lane 8), ddG (10 µg/ml), day 14 (lane 9) and day 20 (lane 10), ddG (1 µg/ml), day 14 (lane 11) and day 20 (lane 12). The size markers (Kilobases) were obtained from HindIII digested bacteriophage λ DNA.
# DHBV = experiment: In vivo treatment of Pekin ducks persistently infected with DHBV, dot blot of sera; settings: 10 mg/kg twice daily by intramuscular injection, four ducks
# Method: Additional tests were conducted to verify the activity in vivo. Four Pekin ducks with proven persistent infection with DHBV were treated with 2,6-diaminopurine 2′,3′-dideoxyriboside (ddDAPR). The animals received 10 mg/kg twice daily by intramuscular injection for two weeks. […] All five animals had evidence of persistent infection with DHBV. […] The untreated duck (number 5) was not bled at this time. […] The control animal (number 5) remained strongly positive after 2 weeks (row c, column 5).
# adenosine deaminase = adenosine deaminase (Homo sapiens, UniProt P00813); settings: Balzarini et al 1987; cited from earlier work
# Sequence of adenosine deaminase (P00813 whole entry): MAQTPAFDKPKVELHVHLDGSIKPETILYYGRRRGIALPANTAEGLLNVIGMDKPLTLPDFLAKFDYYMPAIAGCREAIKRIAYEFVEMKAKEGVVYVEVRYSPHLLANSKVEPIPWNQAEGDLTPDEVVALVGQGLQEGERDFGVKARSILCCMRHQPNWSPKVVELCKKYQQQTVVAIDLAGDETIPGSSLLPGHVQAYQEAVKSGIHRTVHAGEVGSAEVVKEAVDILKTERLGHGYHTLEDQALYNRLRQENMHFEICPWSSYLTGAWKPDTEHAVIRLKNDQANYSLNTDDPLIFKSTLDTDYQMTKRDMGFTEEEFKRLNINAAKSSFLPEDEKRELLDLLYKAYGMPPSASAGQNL
# [4] = Conversion of ddDAPR to ddG in whole blood; type: in vitro ADME; settings: whole blood from a duck, in 5 minutes; read-out: ddDAPR metabolized to ddG
# Excerpt: We have also confirmed that ddDAPR is rapidly metabolized to ddG. This has been done using whole blood from a duck and measuring the rate of conversion of ddDAPR to ddG.
# [5] = densitometry scans of the dot hybridization at 20 days
compound,measurement,setting,value
"2′,3′-dideoxythymidine [ddT, reference compound]",inhibition of DHBV replication,"[1]; dose response curve, day sixteen, Figure 1",no inhibition
same,production of extracellular virus,extracellular DHBV,fail to inhibit
"Cc1cn([C@H]2C[C@H](N=[N+]=[N-])[C@@H](CO)O2)c(=O)[nH]c1=O [AZT, 3′-azido-3′deoxythymidine]",peak plasma levels,[2]; after infusions of 1 mg/kg,1 µg/mL
same,peak plasma levels,[2]; after oral administration of 2 mg/kg,1 µg/mL
"Nc1ncnc2c1ncn2[C@@H]1O[C@H](CO)[C@@H](O)[C@@H]1O [araA, adenine arabinoside]",toxicity associated with therapy,hepatitis B virus; chronic hepatitis B patients,"bone marrow suppression, neuromuscular pain and neurotoxicity"
same,treated patients that show some benefit from therapy,"hepatitis B virus; chronic hepatitis B, most open and controlled studies",about 30%
same,inhibition at 10 µg/mL,[1]; [5],~63%
"Nc1ncnc2c1ncn2[C@H]1CC[C@@H](CO)O1 [ddA, 2′,3′-dideoxyadenosine]",decreased cell viability,duck hepatocytes,not detected
same,decreased cell viability,[3],not detected
same,inhibition at 1 µg/mL,[1]; [5],> 99%
same,inhibition at 10 µg/mL,[1]; [5],> 99%
same,IC50,[1]; Figure 1,0.12 µg/mL
same,inhibition of the synthesis of all forms of DHBV DNA,"DHBV DNA; 1 µg/ml, RC, CCC and SS forms",very strong inhibition
same,change in DHBV DNA forms in treated hepatocytes,DHBV DNA,small increase in RC DNA
same,production of extracellular virus,extracellular DHBV,markedly decreased
"Nc1ccn([C@H]2CC[C@@H](CO)O2)c(=O)n1 [ddC, 2′,3′-dideoxycytidine, reference compound]",PERCENTAGE INHIBITION,"[1]; 1 µg/ml, densitometry scans of the dot hybridization at 20 days",little inhibitory effect
same,inhibition at 1 µg/mL,[1]; [5],0%
same,inhibition at 10 µg/mL,[1]; [5],~57%
same,IC50,[1]; Figure 1,40 µg/mL
same,production of extracellular virus,extracellular DHBV,fail to inhibit
"Nc1nc(N)c2ncn([C@H]3CC[C@@H](CO)O3)c2n1 [ddDAPR, 2,6-diaminopurine 2′,3′-dideoxyriboside]",clearance of the virus from the sera,DHBV; after 1 week,completely cleared the virus from their sera
same,clearance of the virus from the sera,DHBV; after 2 weeks,cleared from the sera
same,deamination by adenosine deaminase,adenosine deaminase,deaminated by adenosine deaminase
same,metabolised at 5 min,[4],> 95%
same,inhibition at 1 µg/mL,[1]; [5],98%
same,IC50,[1]; Figure 1,0.07 µg/mL
same,inhibition at 1 µg/mL,DHBV DNA; 1 µg/ml,> 95%
"Nc1nc2c(ncn2[C@H]2CC[C@@H](CO)O2)c(=O)[nH]1 [ddG, 2′,3′-dideoxyguanosine]",decreased cell viability,duck hepatocytes,not detected
same,decreased cell viability,[3],not detected
same,inhibition at 1 µg/mL,[1]; [5],> 99%
same,inhibition at 10 µg/mL,[1]; [5],> 99%
same,IC50,[1]; Figure 1,0.07 µg/mL
same,change in DHBV DNA forms in treated hepatocytes,DHBV DNA,decrease in all forms of DHBV DNA
same,production of extracellular virus,extracellular DHBV,markedly decreased
"OC[C@@H]1CC[C@H](n2cnc3c(O)ncnc32)O1 [ddI, 2′,3′-dideoxyinosine]",inhibition at 1 µg/mL,[1]; [5],96%
same,inhibition at 1 µg/mL,DHBV DNA; 1 µg/ml,> 95%
